Test results as given in patent US20110212165A1, “PHARMACEUTICAL COMPOSITIONS OF THE ISOLATED D-ENANTIOMER OF THE QUINAZOLINONE DERIVATIVE HALOFUGINONE” (priority 2005, published 2011).
“Also recorded” adds a separate entry of the source.

Assays:
[1] = test system: hAoSMC, HUVEC, Detroit 551, 5637, HT1080 and MDA-MB-435S cells; test: Cell proliferation assay (methylene blue staining) of cultured, actively growing cells; type: cell-based, Human; details: all tested cells (hAoSMC, HUVEC, Detroit 551, 5637, HT1080, MDA-MB-435S); increasing concentrations, 72-96 hours after seeding
Text: The present study sought to compare the effect of each of the trans-halofuginone enantiomers to the racemic mixture on proliferation of cultured, actively growing cells. Human aortic smooth muscle cells (hAoSMC) and Human Umbilical Vein Endothelial Cells (HUVEC) were purchased from Clonetics and grown in Clonetics suitable growth media. Human skin fibroblasts (Detroit 551) and human fibrosarcoma (HT1080) cell lines were purchased from the American Type Culture Collection (ATCC) and grown in MEM supplemented with 10% FCS, 1 mM Sodium pyruvate, 2 mM L-glutamine and 0.2% antibiotic solution (Biological industries, Beit-Haemek, Israel). The human bladder carcinoma (5637) and human breast carcinoma (MDA-MB-435S) cell lines were purchased from the ATCC and grown in DMEM supplemented with 10% FCS and 0.2% antibiotic solution (Biological industries, Beit-Haemek, Israel). Cells were grown in 37° C. and 5% CO2. Cells were seeded in 96-well plates. Twenty-four hours later, increasing concentrations of tested compounds were added to the wells. When the cultures reached sub confluence (72-96 hours after seeding) the cells were fixed with 2.5% glutaraldehyde, washed three times with distilled water, followed by one wash with 0.1 M Boric buffer (pH 8.5). […] The optical density at 620 nm was determined using a micro plate spectrophotometer.

[2] = test system: collagen type I synthesis of skin fibroblasts (Detroit 551); test: Collagen type I synthesis of skin fibroblasts (CICP, Prolagen-C ELISA); type: cell-based, Human; details: for effect on collagen type I synthesis of skin fibroblasts: Detroit 551, 75 μM ascorbic acid, 48 h, increasing concentrations
Procedure: Skin fibroblasts (Detroit 551) were seeded in a 96-well plate (3000 cells/well). Twenty-four hours later the cells were incubated for additional 48 h with 75 μM ascorbic acid and increasing concentrations of the tested compounds (induction medium was exchanged after 24 h). Cell medium was collected and the Prolagen-C ELISA kit of “METRA” was used for detection of collagen type I C′ propeptide (CICP) concentration.

[3] = test system: coccidiosis; details: versus racemic compound; cited from earlier work

SMILES | effect on cell proliferation [1] | effect on collagen type I synthesis of skin fibroblasts [2] | coccidiostatic activity relative to the racemic compound [3] | effect on collagen type I synthesis of skin fibroblasts ([2]; listed as D-enantiomer of halofuginone) | activity in suppressing collagen type I synthesis relative to the racemic mixture ([2]; Detroit 551, versus racemic mixture of halofuginone, listed as D-enantiomer of halofuginone)
O=C(CC1NCCCC1O)Cn1cnc2cc(Br)c(Cl)cc2c1=O (single isomer, unassigned; enantiomer 7) [L-enantiomer, 7-bromo-6-chloro-3-[3-(3-hydroxy-2-piperidinyl)-2-oxopropyl]-4(3H)-quinazolinone] | no effect; also recorded: virtually inactive | no effect; also recorded: virtually inactive | – | – | –
O=C(CC1NCCCC1O)Cn1cnc2cc(Br)c(Cl)cc2c1=O (single isomer, unassigned; enantiomer 7) [D-enantiomer, 7-bromo-6-chloro-3-[3-(3-hydroxy-2-piperidinyl)-2-oxopropyl]-4(3H)-quinazolinone] | suppressed proliferation of all the tested cells in a dose dependent manner | – | three | suppressed collagen type I synthesis of skin fibroblasts in a dose dependent manner | about two
